Laboratory results reported in patent US9763444B2, “Compositions and methods for repelling blood-sucking and biting insects, ticks and mites” (The United States of America, as represented by the …, priority 2013, dated 2017).

Experiments:
Ae. aegypti [1] = experiment: Minimum Effective Dosage (MED) test on treated cloth, mosquito repellency; type: in vivo, Aedes aegypti; details: for Ae. aegypti Minimum Effective Dosage, F1: human subject F1; for Ae. aegypti Minimum Effective Dosage, M1: human subject M1; for Ae. aegypti Minimum Effective Dosage, M2: human subject M2; for Ae. aegypti Minimum Effective Dosage, Average: mean of 3 volunteers; for mosquito repellent activity against Ae. aegypti (in words): MED test on treated cloth; for Ae. aegypti Minimum Effective Dosage, M9: human subject M9; for Ae. aegypti Minimum Effective Dosage, M10: human subject M10
Procedure: Bioassay for mosquito repellent activity: Repellency screening test for experimental chemicals were carried out to identify candidates that might be useful repellents. The repellent efficacy was compared to that of the standard repellent, DEET. Experimental compounds were assessed in one of two ways: (1) a range of concentration was evaluated to determine the minimum effective dosage (MED) which was the concentration threshold of where the repellent began to fail and allowed bites, or (2) a predetermined concentration of each repellent was applied to cloth and the activity was evaluated over several days (or in some cases months) (Katritzky, A. R., et al., Proc. Nat. Acad. Sci. (US), 105, 7359-7364 (2008); Katritzky, A. R., et al., Journal of Med. Entomol., 47: 924-938 (2010)). When conducting assays for repellency, a failure point was also predetermined for those measurements. Since experiments described herein used about 500 female mosquitoes per test, the failure point was set at 1% (equal to 5 bites) received during a test interval. From 3 to 5 volunteers participated in the screening of each set of chemicals.
Minimum Effective Dosage (MED) Test: The MED bioassays on treated cloth were a method of screening to determine the minimum amount of a repellent needed to prevent bites. Experimental compounds were prepared in solution by combining 0.15 g of experimental chemical with 2 mL of acetone in a 7.1 mL screwtop glass vial. This solution was then serially diluted to obtain nine concentrations when applied on to the cloth patch: 1.5, 0.75, 0.375, 0.187, 0.094, 0.047, 0.023, 0.011, and 0.006 mg/cm^2. The standard N,N-diethyl-3-methylbenzamide (DEET) was also tested at the same concentration levels to serve as a control and a comparison for relative repellency. A 50 cm^2 (5 cm×10 cm) patch of muslin cloth was rolled lengthwise and placed into each of the glass vials and scaled with a screwtop so it soaked up the solution. Just prior to the experiment, the pieces of treated cloth were removed from the vials, affixed to card stock tabs (5 cm×3 cm) with staples, and hung with masking tape on a rack to dry and allow acetone to evaporate. Volunteers wore a latex glove over their hands, a nylon stocking over their arm, and then wrapped a plastic Velcro-sealed sleeve over their entire forearm with a 32 cm^2 (4 cm×8 cm) window cut-out to allow mosquitoes to bite through. The nylon stocking acted as a barrier between the dried cloth and the skin, an additional precaution with experimental compounds. Dried cloth patches were stretched across the window in the plastic sleeve and held in place with masking tape. Volunteers placed their sleeve-covered arms into a screened cage for a one minute period with approximately 500 female Ae. aegypti mosquitoes that had been preselected for host-seeking behavior using a draw box (Posey, K. H., and C. E. Schreck, Mosquito News, 41: 566-568 (1981)). […] The MED recorded was the lowest passing concentration level tested for the experimental compound. […] All human volunteers in the study provided informed consent to participate of a protocol approved by the University of Florida Human Use Institutional Review Board (IRB #636-2005).

An. albimanus = experiment: as above; type: in vivo, Anopheles albimanus; details: Table 4, highest concentration 1.500 mg/cm^2; for An. albimanus Minimum Effective Dosage, M4: subject M4; for An. albimanus Minimum Effective Dosage, M5: subject M5; for An. albimanus Minimum Effective Dosage, M8: subject M8; for An. albimanus Minimum Effective Dosage, M9: subject M9; for An. albimanus Minimum Effective Dosage, M10: subject M10
Ae. aegypti [2] = experiment: Complete Protection Time test on treated cloth (duration of protection); type: in vivo, Aedes aegypti; details: Dosage 0.75 mg/cm^2 on cloth
Procedure: Bioassay for mosquito repellent activity: Repellency screening test for experimental chemicals were carried out to identify candidates that might be useful repellents. The repellent efficacy was compared to that of the standard repellent, DEET. Experimental compounds were assessed in one of two ways: (1) a range of concentration was evaluated to determine the minimum effective dosage (MED) which was the concentration threshold of where the repellent began to fail and allowed bites, or (2) a predetermined concentration of each repellent was applied to cloth and the activity was evaluated over several days (or in some cases months) (Katritzky, A. R., et al., Proc. Nat. Acad. Sci. (US), 105, 7359-7364 (2008); Katritzky, A. R., et al., Journal of Med. Entomol., 47: 924-938 (2010)). When conducting assays for repellency, a failure point was also predetermined for those measurements. Since experiments described herein used about 500 female mosquitoes per test, the failure point was set at 1% (equal to 5 bites) received during a test interval. From 3 to 5 volunteers participated in the screening of each set of chemicals. Complete Protection Time Test: Complete protection time (CPT) on treated cloth is a method of screening that is used to determine the repellent duration for experimental chemicals that have not been examined for safe use on humans. The standard repellent DEET was used as a positive control as a benchmark by which to compare the repellents. Experimental compounds were prepared in solution by combining 0.075 g of experimental chemical with 1 mL of acetone in a 7.1-mL screwtop glass vial. The same concentration level of DEET was also prepared in this way to serve as a control and a comparison for relative repellency. A 50 cm^2 (5 cm×10 cm) patch of muslin cloth was rolled lengthwise and placed into each of the glass vials and sealed with a screwtop so it soaked up the solution. Just prior to the experiment, the pieces of treated cloth were removed from the vials, affixed to card stock tabs (5 cm×3 cm) with staples, and hung with masking tape on a rack to dry and allowed the volatile acetone to evaporate. Similar to the MED tests, volunteers wore a latex glove over their hands, a nylon stocking over their arm, and then wrapped a plastic Velcro-sealed sleeve over their entire forearm with a 32 cm^2 (4 cm×8 cm) window cut-out to allow mosquitoes to bite through. Dried cloth patches were stretched across the window in the plastic sleeve and held in place with masking tape. Volunteers placed their sleeve-covered arms into a screened cage for a one minute period with approximately 500 female Ae. aegypti mosquitoes that had been preselected for host-seeking behavior using a draw box. A cloth patch that received a 1% bite through level, equal to 5 mosquitoes that bit out of 500 mosquitoes, was considered a failure at that concentration. If 0-4 bites were received, then the treated cloth was still considered to be repellent at that concentration. The duration was recorded as the number of days an experimental chemical received a passing result, with day 0 being the day the sample was first dried. […] As with the tests conducted to determine CPT, volunteers in the study provided informed consent (IRB protocol #636-2005). The protocol was approved by the University of Florida Human Use Institutional Review Board.

[3] = Table 2, highest concentration 1.500 mg/cm^2
[4] = Table 1 preliminary assay, human subject M4, highest concentration 1.500 mg/cm^2
[5] = Table 1 preliminary assay, human subject M5, highest concentration 1.500 mg/cm^2
[6] = Table 1 preliminary assay, human subject M8, highest concentration 1.500 mg/cm^2
[7] = Table 1 preliminary assay, highest concentration 1.500 mg/cm^2
[8] = Table 5, subject M4, highest dose 0.375 mg/cm2 (0.187 for 7)
[9] = Table 5, subject M5, highest dose 0.375 mg/cm2 (0.187 for 7)
[10] = Table 5, subject M8, highest dose 0.375 mg/cm2 (0.187 for 7)

Row | Structure (SMILES) | Ae. aegypti Minimum Effective Dosage, F1 (Ae. aegypti [1]; [3]) | Ae. aegypti Minimum Effective Dosage, M1 (Ae. aegypti [1]; [3]) | Ae. aegypti Minimum Effective Dosage, M2 (Ae. aegypti [1]; [3]) | mosquito repellent activity against Ae. aegypti (in words) (Ae. aegypti [1]) | Ae. aegypti Minimum Effective Dosage, M4 (Ae. aegypti [1]; [8]) | Ae. aegypti Minimum Effective Dosage, M5 (Ae. aegypti [1]; [9]) | Ae. aegypti Minimum Effective Dosage, M8 (Ae. aegypti [1]; [10]) | also measured
1 | CC1(C)C=Cc2ccc(Cl)cc2O1 [Compound 12] | 0.750 mg/cm^2 | 0.750 mg/cm^2 | 0.750 mg/cm^2 | – | – | – | – | Ae. aegypti Minimum Effective Dosage, Average (Ae. aegypti [1]; Table 2): 0.750 mg/cm^2
2 | COc1ccc(CO)c2c1C=CC(C)(C)O2 [Compound 4] | – | – | – | mixed results | – | – | – | Ae. aegypti Minimum Effective Dosage, M4 (Ae. aegypti [1]; [4]): >1.500 mg/cm^2; Ae. aegypti Minimum Effective Dosage, M5 (Ae. aegypti [1]; [5]): 0.375 mg/cm^2; Ae. aegypti Minimum Effective Dosage, M8 (Ae. aegypti [1]; [6]): 0.375 mg/cm^2; Ae. aegypti Minimum Effective Dosage, M9 (Ae. aegypti [1]; [7]): 0.750 mg/cm^2; Ae. aegypti Minimum Effective Dosage, M10 (Ae. aegypti [1]; [7]): >1.500 mg/cm^2; An. albimanus Minimum Effective Dosage, M4 (An. albimanus): >1.500 mg/cm^2; An. albimanus Minimum Effective Dosage, M5 (An. albimanus): >1.500 mg/cm^2; An. albimanus Minimum Effective Dosage, M8 (An. albimanus): >1.500 mg/cm^2; An. albimanus Minimum Effective Dosage, M9 (An. albimanus): 0.750 mg/cm^2; An. albimanus Minimum Effective Dosage, M10 (An. albimanus): >1.500 mg/cm^2
3 | COCCc1ccc2c(c1)C=CC(C)(C)O2 [Compound 19, 6-(2-methoxyethyl)-2,2-dimethyl-2H-chromene] | – | – | – | did not show any improvement of activity | >0.375 mg/cm^2 | >0.375 mg/cm^2 | >0.375 mg/cm^2 | –
4 | CC1(C)C=Cc2cc(Cl)ccc2O1 [Compound 17] | – | – | – | – | – | – | – | Duration of protection, Proportion to DEET (Ae. aegypti [2]): 0.50; Duration of protection against Ae. aegypti, M-3 Days Protection (Ae. aegypti [2]; subject M-3): 1 days
5 | COC(=O)c1ccc2c(c1)OC(C)(C)C=C2 [Compound 8] | – | – | – | ineffective | >0.375 mg/cm^2 | >0.375 mg/cm^2 | >0.375 mg/cm^2 | –
6 | COC(=O)Cc1ccc2c(c1)C=CC(C)(C)O2 [Compound 10] | 0.375 mg/cm^2 | 0.750 mg/cm^2 | 0.375 mg/cm^2 | – | >0.375 mg/cm^2 | >0.375 mg/cm^2 | >0.375 mg/cm^2 | Ae. aegypti Minimum Effective Dosage, Average (Ae. aegypti [1]; Table 2): 0.500 mg/cm^2
7 | CC1(C)C=Cc2cc(CO)ccc2O1 [Compound 7] | – | – | – | ineffective | >0.187 mg/cm^2 | >0.187 mg/cm^2 | >0.187 mg/cm^2 | –
8 | CC1(C)C=Cc2cccc(Cl)c2O1 [Compound 15] | 0.094 mg/cm^2 | 0.094 mg/cm^2 | 0.187 mg/cm^2 | – | – | – | – | Ae. aegypti Minimum Effective Dosage, Average (Ae. aegypti [1]; Table 2): 0.125 mg/cm^2
9 | COC(=O)c1ccc(Cl)c2c1C=CC(C)(C)O2 [Compound 14, Methyl 8-chloro-2,2-dimethyl-2H-chromene-5-carboxylate] | >1.500 mg/cm^2 | >1.500 mg/cm^2 | >1.500 mg/cm^2 | – | – | – | – | –
10 | COC(=O)c1cccc2c1C=CC(C)(C)O2 [Compound 6] | – | – | – | ineffective at the highest dosage tested | >0.375 mg/cm^2 | >0.375 mg/cm^2 | >0.375 mg/cm^2 | –
11 | COC(=O)c1ccc2c(c1)C=CC(C)(C)O2 [Compound 5] | – | – | – | mixed results | – | – | – | Ae. aegypti Minimum Effective Dosage, M4 (Ae. aegypti [1]; [4]): >1.500 mg/cm^2; Ae. aegypti Minimum Effective Dosage, M5 (Ae. aegypti [1]; [5]): 0.375 mg/cm^2; Ae. aegypti Minimum Effective Dosage, M8 (Ae. aegypti [1]; [6]): 0.187 mg/cm^2; Ae. aegypti Minimum Effective Dosage, M9 (Ae. aegypti [1]; [7]): 0.375 mg/cm^2; Ae. aegypti Minimum Effective Dosage, M10 (Ae. aegypti [1]; [7]): >1.500 mg/cm^2; An. albimanus Minimum Effective Dosage, M4 (An. albimanus): 0.187 mg/cm^2; An. albimanus Minimum Effective Dosage, M5 (An. albimanus): 0.375 mg/cm^2; An. albimanus Minimum Effective Dosage, M8 (An. albimanus): >1.500 mg/cm^2; An. albimanus Minimum Effective Dosage, M9 (An. albimanus): 0.187 mg/cm^2; An. albimanus Minimum Effective Dosage, M10 (An. albimanus): 0.750 mg/cm^2
12 | CC(=O)c1ccc2c(c1O)C=CC(C)(C)O2 [Compound 3] | – | – | – | least repellent | – | – | – | Ae. aegypti Minimum Effective Dosage, M4 (Ae. aegypti [1]; [4]): >1.500 mg/cm^2; Ae. aegypti Minimum Effective Dosage, M5 (Ae. aegypti [1]; [5]): 0.187 mg/cm^2; Ae. aegypti Minimum Effective Dosage, M8 (Ae. aegypti [1]; [6]): >1.500 mg/cm^2; Ae. aegypti Minimum Effective Dosage, M9 (Ae. aegypti [1]; [7]): >1.500 mg/cm^2; Ae. aegypti Minimum Effective Dosage, M10 (Ae. aegypti [1]; [7]): >1.500 mg/cm^2; An. albimanus Minimum Effective Dosage, M4 (An. albimanus): 0.094 mg/cm^2; An. albimanus Minimum Effective Dosage, M5 (An. albimanus): >1.500 mg/cm^2; An. albimanus Minimum Effective Dosage, M8 (An. albimanus): >1.500 mg/cm^2; An. albimanus Minimum Effective Dosage, M9 (An. albimanus): 0.375 mg/cm^2; An. albimanus Minimum Effective Dosage, M10 (An. albimanus): >1.500 mg/cm^2
13 | COC(=O)c1c(Cl)ccc2c1C=CC(C)(C)O2 [Compound 16] | >1.500 mg/cm^2 | >1.500 mg/cm^2 | >1.500 mg/cm^2 | – | – | – | – | –
14 | COCc1cccc2c1C=CC(C)(C)O2 [Compound 18, 5-(methoxymethyl)-2,2-dimethyl-2H-chromene] | – | – | – | diminished repellent activity | 0.047 mg/cm^2 | 0.047 mg/cm^2 | 0.187 mg/cm^2 | Ae. aegypti Minimum Effective Dosage, Average (Ae. aegypti [1]; Table 5): 0.094 mg/cm^2
